Measurements taken from patent US20200316090A1, “TARGETED THERAPEUTICS” (MADRIGAL PHARMACEUTICALS, INC., priority 2012, published 2020).
Where two headings read alike, the source gives them in different places. One block for each compound: values may come before it.

What was measured:
[1] = Tissue distribution of ganetespib in female CD-1 nu/nu mice bearing RERF human NSCLC xenografts; format: in vivo; conditions: mouse, tumor, ganetespib 50 mg/kg IV, DRD
From the text: Tissue Distribution of Ganetespib in Female CD-1 Nu/Nu Mice Bearing RERF Human NSCLC Xenografts
To confirm the distribution of ganetespib in blood, livers, kidneys, brains, hearts, lungs and tumors after IV administration of ganetespib to female CD-1 nu/nu mice bearing RERF human NSCLC xenografts, and to examine metabolic profiles of ganetespib in plasma, red blood cells, and above tissues.
Animals: female CD-1 nu/nu mice bearing RERF human NSCLC xenografts (N=3/group)
Formulation: 10% DMSO, 18% Cremophor RH40, 3.6% dextrose solution (DRD)
Bleeding time points: 5 min, 6, 24 hr
Collected tissues: blood (plasma and red blood cells (RBC)), liver, kidneys, brain, heart, lung, tumor
Protein precipitation: 50 μL of 10 times diluted plasma or RBC+150 μL ACN (10 mM NH4OAc), vortexed and centrifuged at 10000 rpm for 8 min; 150 μL supernatant+150 μL water (10 mM NH4OAc)
Protein precipitation: 100 μL homogenized tissue (1:3 tissue: PBS buffer)+100 μL ACN (10 mM NH4OAc), vortexed and centrifuged at 10000 rpm for 8 min

in vitro = conditions: PAMPA, Permeability (cm/s)
[2] = Mouse plasma stability (Examples 16-18); format: in vitro ADME; conditions: 37° C.; for Mouse (5 μM) % Remaining 1 h (37° C.) * / Mouse (10 μM) % Remaining 1 h (37° C.) *: sum of both peaks of parent chromatogram; for Mouse (5 μM) % Remaining 1 h (37° C.) §: data from single parent peak
[3] = Tissue distribution of SDC-TRAP and degradation products in tumor-bearing mice (plasma, tumor, heart); format: in vivo, Female SCID Mouse (H1975); conditions: mouse, in vivo
[4] = Artificial membrane permeability assay (PAMPA)
HER2 = HER2 degradation in BT-474 cells (Example 3, Method 1 Western blot / Method 2 LI-COR imaging); format: cell-based, human; conditions: 0.5 μM, overnight
From the text: This example illustrates how a HER2 degradation assay may be used as a test to determine and select Hsp90-targeting moieties suitable for use in SDC-TRAPs of the invention, and further illustrates the ability of SDC-TRAPs to target cells preferentially expressing Hsp90. Such a test may further be used to determine the Hsp90 binding ability of SDC-TRAPs of the invention, as well as through competitive binding assays and cell-based Hsp90 client protein degradation assays known in the art.
After treatment, each cytoplasmic sample is prepared from 1×10^6 cells by incubation of cell lysis buffer (#9803, Cell Signaling Technology) on ice for 10 minutes. The resulting supernatant used as the cytosol fractions is dissolved with sample buffer for SDS-PAGE and run on a SDS-PAGE gel, blotted onto a nitrocellulose membrane by using semi-dry transfer. […]
Cells are then fixed in 4% phosphate-buffered paraformaldehyde for 30 minutes at room temperature and then permeabilized by washing five times with 0.1% Triton X-100 in PBS for 5 minutes at room temperature on a shaker. […] The raw data is normalized to DRAQS and the HER2 EC50 is calculated using XLfit™ […]

[5] = PAMPA
[6] = tested on: MCF-7 breast cancer cells; assay: Mouse xenograft efficacy in an MCF-7 breast cancer model; format: in vivo, CD-1 nude mice
Method: MCF-7 breast cancer cells were purchased from ATCC. […] Fetal bovine serum was then added to the medium. The final concentration of fetal bovine serum was 10%. Cells were cultured at 37° C. and 5% CO2.
Mice that were not put on treatment were euthanized. Animals were sourced through CRL (Wilmington, Mass.).

concentration at 5 min [1]: 2350 nM
SMILES: CC(C)c1cc(-c2n[nH]c(=O)n2-c2ccc3c(ccn3C)c2)c(O)cc1O [ganetespib]

SMILES: CCc1c2c(nc3ccc(O)cc13)-c1cc3c(c(=O)n1C2)COC(=O)[C@]3(O)CC [SN-38, reference compound]
Papp (in vitro; 5 h incubation, peak area used in place of concentration, first table): 0.643 ×10⁻⁶ cm/s
Papp (in vitro; same protocol, second table): 1.87 ×10⁻⁶ cm/s
Mouse (5 μM) % Remaining 1 h (37° C.) * [2]: 87%
Mouse (5 μM) % Remaining 19 h (37° C.) [2]: 52%
Mouse (10 μM) % Remaining 1 h (37° C.) * [2]: 64%
Kp at 6 h ([3]; female, SCID): 5.8
Kp at 12 h ([3]; female, SCID): 105
Kp at 24 h ([3]; female, SCID): 105
Kp at […] ([3]; female, SCID): 0.13
concentration at 6 h ([3]; female, SCID): 77.3 nM
concentration at 12 h ([3]; female, SCID): 9.55 nM
concentration at 24 h ([3]; female, SCID): 9.55 nM
Tumor Conc. ([3]; female, SCID, 24 h): 1.07 nmol/g of tissue
Tumor Conc. ([3]; female, SCID, 48 h): 0.046 nmol/g of tissue
Mass Retention (%) ([4]; 5 h incubation, first table): 38.2%
Papp at 5 h ([4]; Permeability (10^−6 cm/s), 5 h incubation, peak area used in place of concentration, first table): 0.643 ×10⁻⁶ cm/s
Papp at 5 h ([4]; Permeability (10^−6 cm/s), same protocol, second table): 1.87 ×10⁻⁶ cm/s
Mass Retention (%) ([4]; same protocol, second table): 46.6%

SMILES: C=CCNC1=C2C[C@@H](C)C[C@H](OC)[C@H](O)[C@@H](C)/C=C(\C)[C@H](OC(N)=O)[C@@H](OC)/C=C\C=C(/C)C(=O)NC(=CC1=O)C2=O [17-AAG]
degradation of HER2 (HER2): partial degradation of HER2

SMILES: CC(C)c1cc(-c2nnc(O)n2-c2ccc3c(ccn3CCNC(=O)CCCCCNC(=O)CCCC[C@H]3SC[C@H]4NC(=O)N[C@H]43)c2)c(O)cc1O [SDC-TRAP-0234]
Mass Retention (%) [5]: 9.56%
Permeability [5]: 1.23e-08 cm/s
Permeability (10^−6 cm/s) [5]: 0.0123 10^−6 cm/s

SMILES: CCc1c2c(nc3ccc(OC(=O)N(C)CCCCN4CCN(Cc5ccc(-n6c(O)nnc6-c6cc(C(C)C)c(O)cc6O)cc5)CC4)cc13)-c1cc3c(c(=O)n1C2)COC(=O)C3(O)CC (centres unmarked) [SDC-TRAP-0044, 4,11-diethyl-4-hydroxy-3,14-dioxo-3,4,12,14-tetrahydro-1H-pyrano[3 ‘,4’:6,7]indolizino[1,2-b]quinolin-9-yl (4-(4-(4-(3-(2,4-dihydroxy-5-isopropylphenyl)-5-hydroxy-4H-1,2,4-triazol-4-yl)benzyl)piperazin-1-yl)butyl)(methyl)carbamate]
Mouse (5 μM) % Remaining 1 h (37° C.) * [2]: 50%
Mouse (5 μM) % Remaining 19 h (37° C.) [2]: 41%
Mouse (10 μM) % Remaining 1 h (37° C.) * [2]: 61%

SMILES: CC(C)c1cc(-c2nnc(O)n2-c2ccc3c(ccn3CCNC(=O)CCCC[C@@H]3SC[C@@H]4NC(=O)N[C@@H]43)c2)c(O)cc1O [SDC-TRAP-0233]
Mass Retention (%) [5]: 10.9%
Permeability [5]: 2.1e-08 cm/s
Permeability (10^−6 cm/s) [5]: 0.021 10^−6 cm/s

SMILES: CCc1c2c(nc3ccc(OC(=O)N4CCN(Cc5ccc(-n6c(O)nnc6-c6cc(C(C)C)c(O)cc6O)cc5)CC4)cc13)-c1cc3c(c(=O)n1C2)COC(=O)C3(O)CC (centres unmarked) [SDC-TRAP-0046, 4,11-diethyl-4-hydroxy-3,14-dioxo-3,4,12,14-tetrahydro-1H-pyrano[3′,4′:6,7]indolizino[1,2-b]quinolin-9-yl 4-(4-(3-(2,4-dihydroxy-5-isopropylphenyl)-5-hydroxy-4H-1,2,4-triazol-4-yl)benzyl)piperazine-1-carboxylate]
Mouse (5 μM) % Remaining 1 h (37° C.) § [2]: 62%
Mouse (5 μM) % Remaining 1 h (37° C.) * [2]: 65%
Mouse (5 μM) % Remaining 19 h (37° C.) [2]: 37%
Mouse (10 μM) % Remaining 1 h (37° C.) * [2]: 57%
concentration at 12 h ([3]; female, SCID, tissue distribution of SDC-TRAP-0046, 12 h, read-out: Plasma Conc.): 54.2 nM
Kp at 12 h ([3]; female, SCID, tissue distribution of SDC-TRAP-0046, 12 h, read-out: Tumor/Plasma Ratio): 40.3
Papp at 5 h [4]: 0.0122 ×10⁻⁶ cm/s
Mass Retention (%) ([4]; same protocol, second table): 88.1%
Permeability (10^−6 cm/s) ([4]; same protocol, second table): 0.0122 10^−6 cm/s

SMILES: CCc1c2c(nc3ccc(OC(=O)N(C)CCOCCn4ccc5cc(-n6c(O)nnc6-c6cc(C(C)C)c(O)cc6O)ccc54)cc13)-c1cc3c(c(=O)n1C2)COC(=O)C3(O)CC (centres unmarked) [SDC-TRAP-0029, 4,11-diethyl-4-hydroxy-3,14-dioxo-3,4,12,14-tetrahydro-1H-pyrano[3′,4′:6,7]indolizino[1,2-b]quinolin-9-yl(2-(2-(5-(3-(2,4-dihydroxy-5-isopropylphenyl)-5-hydroxy-4H-1,2,4-triazol-4-yl)-1H-indol-1-yl)ethoxy)ethyl)(methyl)carbamate]
Mouse (5 μM) % Remaining 1 h (37° C.) § [2]: 43%
Mouse (5 μM) % Remaining 1 h (37° C.) * [2]: 46%
Mouse (5 μM) % Remaining 19 h (37° C.) [2]: 29%
Mouse (10 μM) % Remaining 1 h (37° C.) * [2]: 47%
Papp at 5 h [4]: 0.00646 ×10⁻⁶ cm/s
Mass Retention (%) ([4]; same protocol, second table): 84.0%
Permeability (10^−6 cm/s) ([4]; same protocol, second table): 0.00646 10^−6 cm/s

Kp at 1 h ([3]; female, SCID): 0.17
Kp at 6 h ([3]; female, SCID): 2.25
Kp at 24 h ([3]; female, SCID): 20.4
Kp at 48 h ([3]; female, SCID): 6.85
Kp at […] ([3]; female, SCID): 0.01
concentration at 1 h ([3]; female, SCID): 52.9 µM
concentration at 6 h ([3]; female, SCID): 4000 nM
concentration at 24 h ([3]; female, SCID): 359 nM
concentration at 48 h ([3]; female, SCID): 1110 nM
Tumor Conc. ([3]; female, SCID, 1 h): 9.12 nmol/g of tissue
Tumor Conc. ([3]; female, SCID, 6 h): 8.98 nmol/g of tissue
Tumor Conc. ([3]; female, SCID, 24 h): 7.32 nmol/g of tissue
Tumor Conc. ([3]; female, SCID, 48 h): 7.60 nmol/g of tissue
Mass Retention (%) ([4]; same protocol, second table): 18.7%
SMILES: CCc1c2c(nc3ccc(OC(=O)N4CCC(CCn5ccc6cc(-n7c(O)nnc7-c7cc(C(C)C)c(O)cc7O)ccc65)CC4)cc13)-c1cc3c(c(=O)n1C2)COC(=O)[C@]3(O)CC [SDC-TRAP-0063, 4,11-diethyl-4-hydroxy-3,14-dioxo-3,4,12,14-tetrahydro-1H-pyrano[3′,4′:6,7]indolizino[1,2-b]quinolin-9-yl 4-(2-(5-(3-(2,4-dihydroxy-5-isopropylphenyl)-5-hydroxy-4H-1,2,4-triazol-4-yl)-1H-indol-1-yl)ethyl)piperidine-1-carboxylate]
selective targeting of tumor (tissue distribution in plasma, tumor and heart) [3]: selectively targets and accumulates in tumor cells
suppression of increase in tumor volume ([6]; 150 mg/kg/1×wk versus 100 mg/kg/1×wk (FIG. 8)): appears to prolong the suppression of increase in tumor volume compared to a lower dose (100 mg/kg/1×wk)
tumor growth suppression versus comparators ([6]; either dose (150 or 100 mg/kg/1×wk) (FIG. 8)): greater tumor growth suppression than effector moiety irinotecan alone, or unconjugated binding moiety ganetespib and effector moiety irinotecan administered together
